Measurements: patent publication US20220401564A1 (DANA-FARBER CANCER INSTITUTE, INC., priority 2019, published 2022)

Legend:
HDAC3 = HDAC3 (Homo sapiens, UniProt O15379); experiment: Change in cellular protein abundance (TMT proteomics) in Kelly cells; assay type: cell-based; design: relative change in relative protein abundance with treatment of Kelly cells; endogenous in cells; host or cells: Kelly cells
Procedure: (§1) Lysis buffer (8 M Urea, 50 mM NaCl, 50 mM 4-(2hydroxyethyl)-1-piperazineethanesulfonic acid (EPPS) pH 8.5, protease and phosphatase inhibitors from Roche®) were added to the cell pellets and homogenized by 20 passes through a 21 gauge (1.25 in. long) needle to achieve a cell lysate with a protein concentration between 1-4 mg mL-1. A micro-BCA assay (Pierce™) was used to determine the final protein concentration in the cell lysate. 200 μg of protein for each sample were reduced and alkylated as described in Donovan et al., Elife 7:e38430 (2018).
Proteins were precipitated using methanol/chloroform. Four volumes of methanol were added to the cell lysate, followed by one volume of chloroform, and finally three volumes of water. The mixture was vortexed and centrifuged to separate the chloroform phase from the aqueous phase. The precipitated protein was washed with three volumes of methanol, centrifuged and the resulting washed precipitated protein was allowed to air dry. The precipitated protein was resuspended in 4 M Urea, 50 mM HEPES pH 7.4, followed by dilution to 1 M urea with the addition of 200 mM EPPS, pH 8. Proteins were first digested with LysC (1:50; enzyme:protein) for 12 hours at room temperature. The LysC digestion was diluted to 0.5 M Urea with 200 mM EPPS pH 8 followed by digestion with trypsin (1:50; enzyme:protein) for 6 hours at 37° C. Tandem mass tag (TMT) reagents (Thermo Fisher Scientific) were dissolved in anhydrous acetonitrile (ACN) according to manufacturer's instructions.
Anhydrous ACN was added to each peptide sample to a final concentration of 30% v/v, and labeling was induced with the addition of TMT reagent to each sample at a ratio of 1:4 peptide:TMT label. The 10-plex labeling reactions were performed for 1.5 hours at room temperature and the reaction quenched by the addition of hydroxylamine to a final concentration of 0.3% for 15 minutes at room temperature. The sample channels were combined at a 1:1:1:1:1:1:1:1:1:1:1 ratio, desalted using Cis solid phase extraction cartridges (Waters®) and analyzed by LC-MS for channel ratio comparison. Samples were then combined using the adjusted volumes determined in the channel ratio analysis and dried down in a speed vacuum. The combined sample was then resuspended in 1% formic acid, and acidified (pH 2-3) before being subjected to desalting with C18 SPE (Sep-Pak®, Waters®). Samples were then offline fractionated into 96 fractions by high pH reverse-phase HPLC (Agilent® LC1260) through an aeris peptide xb-c18 column (Phenomenex®) with mobile phase A containing 5% acetonitrile and 10 mM NH4HCO3 in LC-MS grade H2O, and mobile phase B containing 90% acetonitrile and 10 mM NH4HCO3 in LC-MS grade H2O (both pH 8.0). The 96 resulting fractions were then pooled in a non-continuous manner into 24 fractions and these fractions were used for subsequent mass spectrometry analysis.
Data were collected using an Orbitrap Fusion™ Lumos™ mass spectrometer (Thermo Fisher Scientific, San Jose, Calif., USA) coupled with a Proxeon EASY-nLC™ 1200 LC pump (Thermo Fisher Scientific). Peptides were separated on an EasySpray™ ES803 75 μm inner diameter microcapillary column (ThermoFisher Scientific).
Each analysis used an MS3-based TMT method as described previously. The data were acquired using a mass range of m z 340-1350, resolution 120,000, automatic gain control (AGC) target 1×10^6, maximum injection time 100 ms, dynamic exclusion of 120 seconds for the peptide measurements in the Orbitrap Fusion™ Lumos™ mass spectrometer. Data dependent MS2 spectra were acquired in the ion trap with a normalized collision energy (NCE) set at 55%, AGC target set to 1.5×10^5 and a maximum injection time of 150 ms. […]

[1] = system: other identified HDAC proteins; experiment: as above; assay type: cell-based, human; settings: 1 μM, 5 hours, vs DMSO
Procedure: as §1
Proteins were precipitated using methanol/chloroform. Four volumes of methanol were added to the cell lysate, followed by one volume of chloroform, and finally three volumes of water. The mixture was vortexed and centrifuged to separate the chloroform phase from the aqueous phase. […]
Anhydrous ACN was added to each peptide sample to a final concentration of 30% v/v, and labeling was induced with the addition of TMT reagent to each sample at a ratio of 1:4 peptide:TMT label. […] The sample channels were combined at a 1:1:1:1:1:1:1:1:1:1:1 ratio, desalted using Cis solid phase extraction cartridges (Waters®) and analyzed by LC-MS for channel ratio comparison. Samples were then combined using the adjusted volumes determined in the channel ratio analysis and dried down in a speed vacuum. […]

VHL = target: T1, VHL (Homo sapiens, UniProt P40337); experiment: Cellular VHL engagement assay (BRD4BD2-GFP / mCherry reporter cells); assay type: cell-based; settings: with 250 nM AT1, 5 h
T1 construct: Cells stably expressing the BRD4BD2-GFP with mCherry reporter (40) were seeded; endogenous in cells
Procedure: Cells stably expressing the BRD4BD2-GFP with mCherry reporter (40) were seeded at 30-50% confluency in 384-well plates with 50 μL per well of FluoroBrite™ DMEM media (Thermo Fisher Scientific, A18967) supplemented with 10% FBS a day before compound treatment. Compounds and 250 nM AT1((2S,4R)-1-(2R)-2-Acetamido-3-[[6-[2-[(6S)-4-(4-chlorophenyl)-2,3,9-trimethyl-6H-thieno[3,2-f][1,2,4]triazolo[4,3-a][1,4]diazepin-6-yl]acetamido]hexyl]thio]-3-methylbutanoyl]-4-hydroxy-N-[4-(4-methylthiazol-5-yl)benzyl)pyrrolidinine-2-carboxamide) were dispensed using a D300e Digital Dispenser (HP), normalized to 0.5% DMSO, and incubated with the cells for 5 h. The assay plate was imaged immediately using an Acumen® High Content Imager (TTP Labtech) with 488 nm and 561 nm lasers in a […] grid per well format. The resulting images were analyzed using CellProfiler™.
A series of image analysis steps (an ‘image analysis pipeline’) was constructed. First, the red and green channels were aligned and cropped to target the middle of each well (to avoid analysis of the heavily clumped cells at the edges). A background illumination function was calculated for both red and green channels of each well individually and subtracted to correct for illumination variations across the 384-well plate from various sources of error. An additional step was then applied to the green channel to suppress the analysis of large auto fluorescent artifacts and enhance the analysis of cell specific fluorescence by way of selecting for objects under a given size (30 A.U.) and with a given shape (speckles). mCherry-positive cells were then identified in the red channel by filtering for objects 8-60 pixels in diameter and by using intensity to distinguish between clumped objects. The green channel was then segmented into GFP positive and negative areas and objects were labeled as GFP positive if at least 40% of it overlapped with a GFP positive area. The fraction of GFP-positive cells/mCherry-positive cells in each well was then calculated, and the green and red images were rescaled for visualization.

Chain of HDAC3 (O15379 whole entry): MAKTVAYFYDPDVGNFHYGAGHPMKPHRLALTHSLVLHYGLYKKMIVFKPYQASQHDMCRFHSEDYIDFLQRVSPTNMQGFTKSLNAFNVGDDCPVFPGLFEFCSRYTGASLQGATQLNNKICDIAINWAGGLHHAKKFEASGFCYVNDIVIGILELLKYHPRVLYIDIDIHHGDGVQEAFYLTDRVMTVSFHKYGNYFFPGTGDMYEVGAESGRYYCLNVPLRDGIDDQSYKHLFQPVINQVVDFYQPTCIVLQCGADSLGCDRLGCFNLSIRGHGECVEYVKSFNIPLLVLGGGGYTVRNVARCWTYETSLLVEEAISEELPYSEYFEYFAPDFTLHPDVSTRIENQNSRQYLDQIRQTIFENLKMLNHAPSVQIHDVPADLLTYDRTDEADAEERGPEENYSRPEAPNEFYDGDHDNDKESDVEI
T1 sequence (P40337 whole entry, species assumed): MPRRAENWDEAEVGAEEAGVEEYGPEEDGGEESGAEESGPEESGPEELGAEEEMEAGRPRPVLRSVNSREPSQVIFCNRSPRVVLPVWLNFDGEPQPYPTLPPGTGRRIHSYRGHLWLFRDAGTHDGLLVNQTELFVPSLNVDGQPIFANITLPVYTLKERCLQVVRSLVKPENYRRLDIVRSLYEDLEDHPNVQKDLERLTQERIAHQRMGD

Cc1ncsc1-c1ccc([C@H](C)NC(=O)[C@@H]2C[C@@H](O)CN2C(=O)[C@@H](NC(=O)CCOCCN(CCc2c[nH]c3ccccc23)Cc2ccc(/C=C/C(=O)NO)cc2)C(C)(C)C)cc1 [Compound 1, (2S,4R)-1-((S)-2-(3-(2-((2-(1H-indol-3-yl)ethyl)(4-((E)-3-(hydroxyamino)-3-oxoprop-1-en-1-yl)benzyl)amino)ethoxy)propanamido)-3,3-dimethylbutanoyl)-4-hydroxy-N—((S)-1-(4-(4-methylthiazol-5-yl)phenyl)ethyl)pyrrolidine-2-carboxamide]
cellular HDAC3 protein levels, change in relative protein abundance (heat map FIG. 2) (HDAC3; 1 μM, 5 hours, vs DMSO): down-regulation
HDAC3 protein levels, relative protein abundance compared to DMSO control (HDAC3; scatter plots FIG. 1 and FIG. 3): significant and selective reduction
cellular protein levels of the other identified HDAC proteins (heat map FIG. 2) [1]: did not affect
IC50 (VHL): 16.9 µM
